Assay results taken from US10201527B2, “Benzimidazole derivatives: preparation and pharmaceutical applications” (MEI PHARMA, INC., priority 2003, dated 2019).

Legend:
[1] = system: Colo205 cells; assay: Cell-based proliferation assay (cyquant), Colo205; conditions: Homo sapiens, 96 h treatment;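 also: Colo205 human colon cancer cells exposed to compounds over a concentration range for 96 h, growth read by CyQUANT proliferation assay, GI50 taken from fitted dose-response curves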
Experimental: A549 and Colo205 cells were seeded in 96-wells plate at 2000 and 5000 cells per well respectively. […] The plates were incubated at 37° C., 5% CO2, for 24 h. Cells were treated with compounds at various concentration for 96 h. Cell growth was then monitored using cyquant cell proliferation assay (Invitrogen Pte Ltd). Dose response curves were plotted to determine GI50 values for the compounds using XL-fit.

[2] = system: MDA-MB435 cells; assay: Cell-based proliferation assay (cyquant), MDA-MB435; conditions: Homo sapiens, MDA-MB-435; 96 h treatment
Experimental: Cell-Based Proliferation Assay for Determination of GI50 Values
Human colon cancer cell lines (Colo205 and HCT116), human breast cancer cell lines (MDA-MB435 and MDA-MB231), and human lung cancer cell line (A549) were obtained from ATCC. Colo205 cells were cultivated in RPMI 1640 containing 2 mM L-Glutamine, 5% FBS, 1.0 mM Na Pyruvate. A549 and MDA-MB231 were cultivated in RPMI 1640 containing 2 mM L-glutamine, 5% FBS. MDA-MB435 cells were cultivated in DMEM containing 2 mM L-Glutamine, 5% FBS. HCT116 cells were cultivated in IMEM containing 2 mM L-Glutamine, 5% FBS. A549 and Colo205 cells were seeded in 96-wells plate at 2000 and 5000 cells per well respectively. MDA-MB435, HCT116, MDA-MB231 cells were seeded in 96-wells plate at 6000 cells per well. The plates were incubated at 37° C., 5% CO2, for 24 h. Cells were treated with compounds at various concentration for 96 h. Cell growth was then monitored using cyquant cell proliferation assay (Invitrogen Pte Ltd). Dose response curves were plotted to determine GI50 values for the compounds using XL-fit.

[3] = target: HDAC3 (Homo sapiens (Human), UniProt O15379); assay: In vitro HDAC assay, HDAC3; type: biochemical; conditions: Free base
Experimental: In Vitro HDAC Assay for Determination of IC50 Values
The assay has been carried out in 96 well format and the BIOMOL fluorescent-based HDAC activity assay has been applied. […] Flur de lys Developer was added and the reaction was incubated for 10 min. Briefly, deacetylation of the substrate sensitizes it to the developer, which then generates a fluorophore (symbol). The fluorophore is excited with 360 nm light and the emitted light (460 nm) is detected on a fluorometric plate reader (Tecan Ultra Microplate detection system, Tecan Group Ltd.).
The analytical software, Prism 3.0 has been used to generate IC50 from a series of data.

[4] = target: HDAC1 enzyme (recombinant GST-HDAC1) (Homo sapiens (Human), UniProt Q13547); assay: In vitro HDAC assay (BIOMOL fluorescent-based), HDAC1 enzyme; type: biochemical
Experimental: (§1) Expression of GST-HDAC1 or HTGST-HDAC8 was done by infecting SF9 cells (Invitrogen Pte Ltd) with pDEST20-HDAC1 or pFASTBAC-GST-HDAC8 baculovirus at MOI=1 for 48 h. Soluble cell lysate was incubated with pre-equilibrated Glutathione Sepharose 4B beads (Amersham) at 4° C. for 2 h. The beads were washed with PBS buffer for 3 times. The GST-HDAC1 protein or GST-HDAC8 protein was eluted by elution buffer containing 50 mM Tris, pH8.0, 150 mM NaCl, 1% Triton X-100 and 10 mM or 20 mM reduced Glutathione. The purified GST-HDAC1 protein or purified GST-HDAC8 protein was dialyzed with HDAC storage buffer containing 10 mM Tris, pH7.5, 100 mM NaCl and 3 mM MgCl2. 20% Glycerol was added to purified GST-HDAC1 protein or purified GST-HDAC8 before storage at −80° C.

[5] = target: HDAC8 enzyme (recombinant GST-HDAC8) (Homo sapiens (Human), UniProt Q9BY41); assay: In vitro HDAC assay (BIOMOL fluorescent-based), HDAC8 enzyme; type: biochemical
Experimental: as §1

[6] = system: acetylated histone 3 [AcH3(lys9/14)] in Colo205 cells; assay: Histone H3 acetylation assay, ELISA approach; type: cell-based; conditions: Homo sapiens, COLO 205, read-out: EC50, concentration effective for induction of acetylation of histone 3 ([AcH3(lys9/14)]) signal by 50%, 24 h treatment
Experimental: Histone H3 Acetylation Assay—ELISA Approach
An Enzyme Linked Immunosorbent Assay (ELISA) can be applied to detect and quantify the acetylated histone3 (AcH3) in the protein lysate obtained from cancer cell lines treated with the HDAC inhibitors.
The ELISA assay was developed to detect the level of AcH3 from the Colo205 colon cancer cell line treated with 10 μM HDAC inhibitory compounds. The protein lysates from untreated and treated Colo205 were obtained as previously described. The concentration of protein from lysed cells was determined using the BCA method (Sigma-Aldrich Pte Ltd).
The detection antibody used in this ELISA was donkey anti rabbit conjugated with peroxidase.
Colo205 cells were subsequently treated with HDAC inhibitors at different doses (in duplicates, 9 doses treatment, 4-fold dilutions from 100 μM). After treatment for 24 h, cells were lysed and the protein concentration was determined.
The ELISA plate (immulon 2HB plate, Biolaboratories Pte Ltd) was coated with 4 μg/ml of mouse monoclonal antibody against H3 at 4° C. overnight. […] The absorbance was measured at OD450 nm using Spectromax reader (Molecular Devices Corporation, Sunnyvale, Calif.).
The standard curve was drawn and the concentration of AcH3 [(Lys9/14), μg/ml] in a sample was determined using the Softmax software in Spectromax. The amount of AcH3 in a sample was calculated based on the following formula; […]

Sequence of HDAC1 enzyme (recombinant GST-HDAC1) (Q13547 whole entry): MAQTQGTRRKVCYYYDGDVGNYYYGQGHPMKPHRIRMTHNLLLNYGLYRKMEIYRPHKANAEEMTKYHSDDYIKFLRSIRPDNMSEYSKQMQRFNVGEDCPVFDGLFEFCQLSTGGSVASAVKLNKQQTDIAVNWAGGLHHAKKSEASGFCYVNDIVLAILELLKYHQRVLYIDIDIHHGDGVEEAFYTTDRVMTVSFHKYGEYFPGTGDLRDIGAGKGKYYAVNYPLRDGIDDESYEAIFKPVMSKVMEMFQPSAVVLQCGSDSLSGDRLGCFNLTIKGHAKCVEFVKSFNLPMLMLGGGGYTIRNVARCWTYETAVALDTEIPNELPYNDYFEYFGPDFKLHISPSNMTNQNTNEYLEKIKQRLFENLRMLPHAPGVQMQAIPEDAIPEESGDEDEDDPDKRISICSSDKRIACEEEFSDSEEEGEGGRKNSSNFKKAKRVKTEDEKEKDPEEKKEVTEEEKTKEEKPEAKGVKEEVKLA
Sequence of HDAC3 (O15379 whole entry): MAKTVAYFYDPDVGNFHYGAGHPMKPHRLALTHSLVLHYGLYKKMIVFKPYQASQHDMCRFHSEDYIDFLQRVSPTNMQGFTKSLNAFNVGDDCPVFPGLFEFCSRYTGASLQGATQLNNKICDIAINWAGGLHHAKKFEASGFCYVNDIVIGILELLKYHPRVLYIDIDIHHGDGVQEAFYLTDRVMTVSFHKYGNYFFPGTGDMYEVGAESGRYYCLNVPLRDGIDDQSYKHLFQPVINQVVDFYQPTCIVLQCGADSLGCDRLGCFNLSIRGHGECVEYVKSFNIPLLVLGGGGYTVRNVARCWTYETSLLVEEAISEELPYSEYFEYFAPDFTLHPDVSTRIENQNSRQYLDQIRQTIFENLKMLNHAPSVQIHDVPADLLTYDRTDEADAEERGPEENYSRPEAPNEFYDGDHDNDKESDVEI
Sequence of HDAC8 enzyme (recombinant GST-HDAC8) (Q9BY41 whole entry): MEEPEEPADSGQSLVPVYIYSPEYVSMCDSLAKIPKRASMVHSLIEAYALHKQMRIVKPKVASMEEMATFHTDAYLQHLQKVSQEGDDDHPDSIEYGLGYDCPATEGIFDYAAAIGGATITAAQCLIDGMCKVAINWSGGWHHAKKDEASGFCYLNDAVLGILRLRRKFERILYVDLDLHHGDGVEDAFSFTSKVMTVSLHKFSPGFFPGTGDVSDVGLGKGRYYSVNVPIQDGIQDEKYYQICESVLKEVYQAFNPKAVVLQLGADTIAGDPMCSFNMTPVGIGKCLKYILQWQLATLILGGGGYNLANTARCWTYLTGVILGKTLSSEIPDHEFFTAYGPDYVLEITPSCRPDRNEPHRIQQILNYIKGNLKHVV

Structure (SMILES)	GI50 ([1]; COLO 205)	GI50 [2]	also measured
CC(C)Cc1nc2cc(/C=C/C(=O)NO)ccc2n1CCc1ccccc1 [Compound 25, N-Hydroxy-3-(2-isobutyl-1-phenethyl-1H-benzimidazol-5-yl]-acrylamide]	8100 nM	6820 nM	
O=C(/C=C/c1ccc2c(c1)nc(CCc1ccccc1)n2CCN1CCCCC1)NO [Compound 67, N-Hydroxy-3-[2-phenethyl-1-(piperidin-1-yl-ethyl)-1H-benzimidazol-5-yl]-acrylamide]			IC50 [3]: 56 nM
O=C(/C=C/c1ccc2c(c1)nc(CCc1ccccc1)n2CCN1CCOCC1)NO [Compound 44]	2820 nM	3650 nM	IC50 [4]: 268 nM; IC50 [5]: 345 nM
CC(C)(C)Cn1c(CCc2ccccc2)nc2cc(/C=C/C(=O)NO)ccc21 [Compound 75]	2880 nM		IC50 [4]: 290 nM
COc1ccc(-c2nc3cc(/C=C/C(=O)NO)ccc3n2CC(O)CO)cc1 (centres unmarked) [Compound 6, N-Hydroxy-3-[1-(2,3-hydroxy-propyl)-2-(4-methoxy-phenyl)-1H-benzimidazole-5-yl]-acrylamide]	> 100000 nM		
COc1cc(Cn2c(CCc3ccccc3)nc3cc(/C=C/C(=O)NO)ccc32)cc(OC)c1OC [Compound 2, N-Hydroxy-3-[1-(3,4,5-trimethoxybenzyl)-2-(2-phenyl-ethyl)-1H-benzimidazol-5-yl]-acrylamide]			IC50 [3]: 64 nM; EC50 [6]: 1700 nM
CC(Cc1nc2cc(/C=C/C(=O)NO)ccc2n1CCc1cccnc1)c1ccccc1 (centres unmarked) [Compound 41]	1650 nM	1910 nM	
CCn1c(CCNS(=O)(=O)c2ccccc2)nc2cc(/C=C/C(=O)NO)ccc21 [Compound 71]	7090 nM		
Cn1c(CNC(=O)Cc2ccc(F)cc2)nc2cc(/C=C/C(=O)NO)ccc21 [Compound 69]	7160 nM		
O=C(/C=C/c1ccc2[nH]c(CCc3cccnc3)nc2c1)NO [Compound 87]	47700 nM		
COCCCn1c(CCc2ccccc2)nc2cc(/C=C/C(=O)NO)ccc21 [Compound 15]	1990 nM	4070 nM	
COc1cc(-c2nc3cc(/C=C/C(=O)NO)ccc3n2CC(O)CO)ccc1OCc1ccccc1 (centres unmarked) [Compound 7, N-Hydroxy-3-[2-(4-benzyloxy-3-methoxy-phenyl)-1-(2,3-hydroxy-propyl)-1H-benzimidazole-5-yl]-acrylamide]	> 100000 nM		
CC(C)Cc1nc2cc(/C=C/C(=O)NO)ccc2n1CCc1ccccn1 [Compound 22]	13500 nM	13400 nM	
O=C(/C=C/c1ccc2c(c1)nc(CCc1ccccc1)n2CCCn1ccnc1)NO [Compound 56, N-Hydroxy-3-[1-(3-imidazol-1-yl-propyl)-2-phenethyl-1H-benzimidazol-5-yl]-acrylamide]	> 100000 nM	> 100000 nM	
O=C(/C=C/c1ccc2[nH]c(CCc3ccc(F)cc3)nc2c1)NO [Compound 85]	1650 nM		
O=C(/C=C/c1ccc2c(c1)nc(COCc1ccccc1)n2CCc1cccnc1)NO [Compound 28]	2530 nM	5150 nM	
Cc1nc2cc(/C=C/C(=O)NO)ccc2n1C [Compound 53]			IC50 [4]: 1850 nM
Cn1c(CN(Cc2ccccc2)Cc2ccccc2)nc2cc(/C=C/C(=O)NO)ccc21 [Compound 61]	2690 nM	3050 nM	
CN(C)CC(C)(C)Cn1c(CCc2ccc(F)cc2)nc2cc(/C=C/C(=O)NO)ccc21 [Compound 84]	170 nM		
CCn1c(CCNC(=O)COc2ccccc2)nc2cc(/C=C/C(=O)NO)ccc21 [Compound 73]	6670 nM		
O=C(/C=C/c1ccc2c(c1)nc(CCc1ccccc1)n2Cc1ccccn1)NO [Compound 16, N-Hydroxy-3-(2-phenethyl-1-(pyridin-2-yl)methyl-1H-benzimidazol-5-yl)-acrylamide]	940 nM	980 nM	
O=C(O)CCn1c(CCc2ccccc2)nc2cc(/C=C/C(=O)NO)ccc21 [Compound 32, 3-[5-(2-Hydrocarbamoyl-vinyl)-2-phenethyl-benzimidazol-1-yl]-propionic acid]			IC50 [5]: 1890 nM

Structure (SMILES)	GI50 ([1]; COLO 205)	GI50 [2]	also measured
O=C(/C=C/c1ccc2c(c1)nc(CCc1ccccc1)n2CCCN1CCOCC1)NO [Compound 31, N-Hydroxy-3-[1-(3-morpholin-4-propyl]-2-phenethyl-1H-benzimidazol-5-yl}-acrylamide]	1870 nM	4060 nM	
O=C(/C=C/c1ccc2c(c1)nc(C1CCCCC1)n2CCCO)NO [Compound 24, N-Hydroxy-[2-cyclohexyl-1-(3-hydroxy-propyl)-1H-benzimidazol-5-yl]-acrylamide]	30700 nM	35000 nM	
Cn1c(CNC(=O)c2ccncc2)nc2cc(/C=C/C(=O)NO)ccc21 [Compound 55]	> 100000 nM	> 100000 nM	IC50 [4]: 137 nM
COc1ccc(CNCc2nc3cc(/C=C/C(=O)NO)ccc3n2C)cc1 [Compound 62]	11600 nM	19800 nM	
CN(C)CC(C)(C)Cn1c(CCCc2ccccc2)nc2cc(/C=C/C(=O)NO)ccc21 [Compound 83]	250 nM		
O=C(NO)c1ccc2c(c1)nc(CCc1ccccc1)n2CCCO [Compound 40, 1-(3-Hydroxy-propyl)-2-phenethyl-1H-benzimidazol-5-carboxylic acid hydroxyamide]	25600 nM	31000 nM	
CN(C)CC(C)(C)Cn1c(SCc2ccccc2)nc2cc(/C=C/C(=O)NO)ccc21 [Compound 89, N-Hydroxy-3-[2-benzylsulfanyl-1-(3-dimethylamino-2-2,dimethyl-propyl)-1H-benzimidazol-5-yl]-acrylamide]			GI50 ([1]; COLO 205, 96 h): 120 nM
COc1cc(Cn2c(CCc3ccccc3)nc3cc(CCC(=O)NO)ccc32)cc(OC)c1OC [Compound 45]	2410 nM	1900 nM	
CN(C)CC(C)(C)Cn1c(CCc2ccccc2)nc2cc(/C=C/C(=O)NO)ccc21 [Compound 17, N-Hydroxy-3-[1-(3-Dimethylamino-2,2-dimethyl-proppyl)-2-phenethyl-1H-benzimidazol-5-yl]-acrylamide]			IC50 [3]: 29 nM; EC50 [6]: 1100 nM
O=C(/C=C/c1ccc2c(c1)nc(CCc1ccccc1)n2CCc1ccccn1)NO [Compound 18]	4690 nM	6160 nM	
O=C(/C=C/c1ccc2c(c1)nc(COCc1ccccc1)n2CCCO)NO [Compound 19]	4100 nM	3970 nM	
Cn1c(CCc2ccccc2)nc2ccc(/C=C/C(=O)NO)cc21 [Compound 59]	2720 nM	3690 nM	IC50 [4]: 382 nM
O=C(/C=C/c1ccc2c(c1)nc(-c1ccccn1)n2CCCO)NO [Compound 13, N-Hydroxy-3-[1-(3-hydroxy-propyl)-2-(2-pyridyl)-1H-benzimidazol-5-yl]-acrylamide]	12300 nM	14000 nM	
CCCn1c(CCc2ccccc2)nc2cc(/C=C/C(=O)NO)ccc21 [Compound 36, N-Hydroxy-3-(2-phenethyl-1-propyl-1H-benzimidazol-5-yl}-acrylamide]	2290 nM	2170 nM	
CCn1c(CN(Cc2ccccc2)Cc2ccccc2)nc2cc(/C=C/C(=O)NO)ccc21 [Compound 68]	730 nM		
CCn1c(CCNC(=O)Cc2ccccc2)nc2cc(/C=C/C(=O)NO)ccc21 [Compound 70]	2900 nM		
O=C(/C=C/c1ccc2c(c1)nc(-c1ccccn1)n2CC(O)CO)NO (centres unmarked) [Compound 9, N-Hydroxy-3-[1-(2,3-hydroxy-propyl)-2-(2-pyridyl)-1H-benzimidazol-5-yl]-acrylamide]	> 100000 nM	> 100000 nM	
O=C(/C=C/c1ccc2c(c1)nc(CCc1ccccc1)n2CCN1CCCC1)NO [Compound 72, N-Hydroxy-3-[2-phenyethyl-1-(2-pyrrolidin-1-yl-ethyl)-1H-benzimidazol-5-yl]-acrylamide]	180 nM		
O=C(/C=C/c1ccc2nc(CCc3ccccc3)n(Cc3ccccc3)c2c1)NO [Compound 58]			IC50 [4]: 1140 nM
Cn1c(CNC(=O)Cc2ccccc2)nc2cc(/C=C/C(=O)NO)ccc21 [Compound 54]	4470 nM	5920 nM	
O=C(/C=C/c1ccc2c(c1)nc(CCc1ccccc1)n2CC(O)CO)NO (centres unmarked) [Compound 8]	41400 nM	58400 nM	
CCn1c(CNCc2ccccc2)nc2cc(/C=C/C(=O)NO)ccc21 [Compound 64, N-Hydroxy-3-[2-(benzylamino-methyl)-ethyl-1H-benzimidazol-5-yl]-acrylamide]	1700 nM		
